Values of other authors in PubChem BioAssay AID1259409 (Chemical Carcinogenesis Research Information System (CCRIS), 2018).

Tested on: rodent chemically induced tumor inhibition, incidence and multiplicity
Assay: CCRIS tumor inhibitor studies
Details: Promoter: NONE USED

Question: What does the source list for `CC1=C(/C=C/C(C)=C/C=C/C(C)=C/C=C/C=C(C)/C=C/C=C(C)/C=C/C2=C(C)C(=O)CCC2(C)C)C(C)(C)CCC1=O`?
Answer: tumour outcome (control, treated, inhibition, significance) (Carcinogen: 4-NITROQUINOLINE-1-OXIDE, 56-57-5, Dose [Inhibitor]: 0, 100 PPM IN DIET FOR 10 WK BEGINNING PRIOR TO CARCINOGEN TREATMENT (STUDY DURATION: 32 WK), Route [Inhibitor]: ORAL, Species: RAT, Strain/Sex: F344/MALE, Target Tissue: Type of Lesion: TONGUE: PAPILLOMA, Dose [Carcinogen]: 20 PPM IN DRINKING WATER FOR 8 WK): 4/24 (17%), 0/17 (0%), 100%, p<0.05; tumour outcome (control, treated, inhibition, significance) (Carcinogen: 4-NITROQUINOLINE-1-OXIDE, 56-57-5, Dose [Inhibitor]: 0, 100 PPM IN DIET FOR 10 WK BEGINNING PRIOR TO CARCINOGEN TREATMENT (STUDY DURATION: 32 WK), Route [Inhibitor]: ORAL, Species: RAT, Strain/Sex: F344/MALE, Target Tissue: Type of Lesion: TONGUE: SQUAMOUS CELL CARCINOMA, Dose [Carcinogen]: 20 PPM IN DRINKING WATER FOR 8 WK): 13/24 (54%), 0/17 (0%), 100%, p<0.05; tumour outcome (control, treated, inhibition, significance) (Carcinogen: 4-NITROQUINOLINE-1-OXIDE, 56-57-5, Dose [Inhibitor]: 0, 100 PPM IN DIET FOR 22 WK BEGINNING 1 WK POST CARCINOGEN TREATMENT (STUDY DURATION: 32 WK), Route [Inhibitor]: ORAL, Species: RAT, Strain/Sex: F344/MALE, Target Tissue: Type of Lesion: TONGUE: PAPILLOMA, Dose [Carcinogen]: 20 PPM IN DRINKING WATER FOR 8 WK): 4/24 (17%), 1/19 (5%), 71%, p<0.05; tumour outcome (control, treated, inhibition, significance) (Carcinogen: 4-NITROQUINOLINE-1-OXIDE, 56-57-5, Dose [Inhibitor]: 0, 100 PPM IN DIET FOR 22 WK BEGINNING 1 WK POST CARCINOGEN TREATMENT (STUDY DURATION: 32 WK), Route [Inhibitor]: ORAL, Species: RAT, Strain/Sex: F344/MALE, Target Tissue: Type of Lesion: TONGUE: SQUAMOUS CELL CARCINOMA, Dose [Carcinogen]: 20 PPM IN DRINKING WATER FOR 8 WK): 13/24 (54%), 1/19 (5%), 91%, p<0.05; tumour outcome (control, treated, inhibition, significance) (Carcinogen: 7,12-DIMETHYLBENZ[A]ANTHRACENE, 57-97-6, Dose [Inhibitor]: 0, 1130 MG/KG OF DIET FROM DAY 34 TO 54 OF AGE (STUDY DURATION: 200 D), Route [Inhibitor]: ORAL, Species: RAT, Strain/Sex: SPRAGUE-DAWLEY/FEMALE, Target Tissue: Type of Lesion: MAMMARY GLAND: ADENOCARCINOMA, Dose [Carcinogen]: 15 MG/RAT ONCE AT 55 D OF AGE): 93%, 80%, 14%, not significant; tumour outcome (control, treated, inhibition, significance) (Carcinogen: 7,12-DIMETHYLBENZ[A]ANTHRACENE, 57-97-6, Dose [Inhibitor]: 0, 1130 MG/KG OF DIET FROM DAY 34 TO 54 OF AGE (STUDY DURATION: 200 D), Route [Inhibitor]: ORAL, Species: RAT, Strain/Sex: SPRAGUE-DAWLEY/FEMALE, Target Tissue: Type of Lesion: MAMMARY GLAND: BENIGN TUMORS, Dose [Carcinogen]: 15 MG/RAT ONCE AT 55 D OF AGE): 28%, 30%, -7%, not calculated; tumour outcome (control, treated, inhibition, significance) (Carcinogen: 7,12-DIMETHYLBENZ[A]ANTHRACENE, 57-97-6, Dose [Inhibitor]: 0, 3390 MG/KG OF DIET FROM DAY 34 TO 54 OF AGE (STUDY DURATION: 200 D), Route [Inhibitor]: ORAL, Species: RAT, Strain/Sex: SPRAGUE-DAWLEY/FEMALE, Target Tissue: Type of Lesion: MAMMARY GLAND: ADENOCARCINOMA, Dose [Carcinogen]: 15 MG/RAT ONCE AT 55 D OF AGE): 93%, 67%, 28%, p<0.05; tumour outcome (control, treated, inhibition, significance) (Carcinogen: 7,12-DIMETHYLBENZ[A]ANTHRACENE, 57-97-6, Dose [Inhibitor]: 0, 3390 MG/KG OF DIET FROM DAY 34 TO 54 OF AGE (STUDY DURATION: 200 D), Route [Inhibitor]: ORAL, Species: RAT, Strain/Sex: SPRAGUE-DAWLEY/FEMALE, Target Tissue: Type of Lesion: MAMMARY GLAND: BENIGN TUMORS, Dose [Carcinogen]: 15 MG/RAT ONCE AT 55 D OF AGE): 28%, 40%, -43%, not calculated; tumour outcome (control, treated, inhibition, significance) (Carcinogen: 7,12-DIMETHYLBENZ[A]ANTHRACENE, 57-97-6, Dose [Inhibitor]: 140 UG (1.5 MG/KG BW) IN 0.4 ML MINERAL OIL 3/WK FOR 28 WK (STUDY DURATION: 28 WK), Route [Inhibitor]: ORAL, Species: HAMSTER, Strain/Sex: SYRIAN/MALE, Target Tissue: Type of Lesion: SKIN: CARCINOMA, Dose [Carcinogen]: 0.1% IN HEAVY MINERAL OIL APPLIED TO BUCCAL POUCH 3/WK FOR 28 WK): 20/20 (100%), 2/20 (10%), 90%, not calculated; tumour outcome (control, treated, inhibition, significance) (Carcinogen: 7,12-DIMETHYLBENZ[A]ANTHRACENE, 57-97-6, Dose [Inhibitor]: 250 MG/KG IN DIET FOR 6 WK PRIOR TO CARCINOGEN DOSE AND CONTINUING FOR 21-22 WK POST CARCINOGEN DOSE (STUDY DURATION: 28, Route [Inhibitor]: ORAL, Species: RAT, Strain/Sex: SPRAGUE-DAWLEY/MALE, Target Tissue: Type of Lesion: SALIVARY GLAND: TUMOR, Dose [Carcinogen]: 1 MG IN 20 µL OLIVE OIL INJECTED INTO SUBMANDIBULAR GLAND ONCE): 20/28 (71%), 21/30 (70%), 1%, not significant; tumour outcome (control, treated, inhibition, significance) (Carcinogen: BENZO[A]PYRENE, 50-32-8, Dose [Inhibitor]: 0, 4.7 MICROMOLAR/D IN 0.1 ML PEANUT OIL BEGINNING 2 WK PRIOR TO CARCINOGEN TREATMENT AND CONTINUING TO 2 WK POST CARCIN, Route [Inhibitor]: GAVAGE, Species: MOUSE, Strain/Sex: SWISS/FEMALE, Target Tissue: Type of Lesion: FORESTOMACH: TUMOR, Dose [Carcinogen]: 1 MG 2/WK IN 0.1 ML PEANUT OIL FOR 4 WK): 20/20 (100%), 4/20 (20%), 80%, p<0.001; tumour outcome (control, treated, inhibition, significance) (Carcinogen: N-BUTYL-N-(4-HYDROXYBUTYL)NITROSAMINE, 3817-11-6, Dose [Inhibitor]: 0, 0.1% IN DIET BEGINNING 5 WK PRIOR TO CARCINOGEN TREATMENT AND CONTINUING FOR DURATION OF STUDY (STUDY DURATION: 7 MO), Route [Inhibitor]: ORAL, Species: MOUSE, Strain/Sex: B6D2F1/MALE, Target Tissue: Type of Lesion: BLADDER: CARCINOMA IN SITU, Dose [Carcinogen]: 5 MG IN SALINE SOLUTION 2/WK FOR 9 WK): 7/24 (29%), 5/24 (21%), 28%, not calculated; tumour outcome (control, treated, inhibition, significance) (Carcinogen: N-BUTYL-N-(4-HYDROXYBUTYL)NITROSAMINE, 3817-11-6, Dose [Inhibitor]: 0, 0.1% IN DIET BEGINNING 5 WK PRIOR TO CARCINOGEN TREATMENT AND CONTINUING FOR DURATION OF STUDY (STUDY DURATION: 7 MO), Route [Inhibitor]: ORAL, Species: MOUSE, Strain/Sex: B6D2F1/MALE, Target Tissue: Type of Lesion: BLADDER: TRANSITIONAL CELL CARCINOMA, Dose [Carcinogen]: 5 MG IN SALINE SOLUTION 2/WK FOR 9 WK): 8/24 (33%), 10/24 (42%), -27%, not calculated; tumour outcome (control, treated, inhibition, significance) (Carcinogen: N-BUTYL-N-(4-HYDROXYBUTYL)NITROSAMINE, 3817-11-6, Dose [Inhibitor]: 0, 0.1% IN DIET BEGINNING 5 WK PRIOR TO CARCINOGEN TREATMENT AND CONTINUING FOR DURATION OF STUDY (STUDY DURATION: 7 MO), Route [Inhibitor]: ORAL, Species: MOUSE, Strain/Sex: B6D2F1/MALE, Target Tissue: Type of Lesion: BLADDER: TUMOR, Dose [Carcinogen]: 5 MG IN SALINE SOLUTION 2/WK FOR 9 WK): 15/24 (63%), 15/24 (63%), 0%, not significant; tumour outcome (control, treated, inhibition, significance) (Carcinogen: N-BUTYL-N-(4-HYDROXYBUTYL)NITROSAMINE, 3817-11-6, Dose [Inhibitor]: 0, 50 PPM IN DRINKING WATER FOR 2O WK BEGINNING 1 WK POST CARCINOGEN TREATMENT (STUDY DURATION: 41 WK), Route [Inhibitor]: ORAL, Species: MOUSE, Strain/Sex: ICR/MALE, Target Tissue: Type of Lesion: URINARY BLADDER: CARCINOMA, Dose [Carcinogen]: 250 PPM IN DRINKING WATER FOR 20 WK): 15/36 (42%), 10/31 (33%), 21%, not significant; tumour outcome (control, treated, inhibition, significance) (Carcinogen: N-BUTYL-N-(4-HYDROXYBUTYL)NITROSAMINE, 3817-11-6, Dose [Inhibitor]: 0, 50 PPM IN DRINKING WATER FOR 20 WK BEGINNING 1 WK POST CARCINOGEN TREATMENT (STUDY DURATION: 41 WK), Route [Inhibitor]: ORAL, Species: MOUSE, Strain/Sex: ICR/MALE, Target Tissue: Type of Lesion: URINARY BLADDER: PAPILLOMA, Dose [Carcinogen]: 250 PPM IN DRINKING WATER FOR 20 WK): 2/36 (6%), 3/31 (10%), -67%, not significant; tumour outcome (control, treated, inhibition, significance) (Carcinogen: N-METHYL-N-NITROSOUREA, 684-93-5, Dose [Inhibitor]: 0, 1130 MG/KG OF DIET BEGINNING 2 D POST CARCINOGEN DOSE AND CONTINUING FOR DURATION OF STUDY (STUDY DURATION: 90 D), Route [Inhibitor]: ORAL, Species: RAT, Strain/Sex: SPRAGUE-DAWLEY/FEMALE, Target Tissue: Type of Lesion: MAMMARY GLAND: ADENOCARCINOMA, Dose [Carcinogen]: 45 MG/KG BW ONCE AT 50 D OF AGE): 100%, 100%, 0%, not significant; tumour outcome (control, treated, inhibition, significance) (Carcinogen: N-METHYL-N-NITROSOUREA, 684-93-5, Dose [Inhibitor]: 0, 3390 MG/KG OF DIET BEGINNING 2 D POST CARCINOGEN DOSE AND CONTINUING FOR DURATION OF STUDY (STUDY DURATION: 90 D), Route [Inhibitor]: ORAL, Species: RAT, Strain/Sex: SPRAGUE-DAWLEY/FEMALE, Target Tissue: Type of Lesion: MAMMARY GLAND: ADENOCARCINOMA, Dose [Carcinogen]: 45 MG/KG BW ONCE AT 50 D OF AGE): 100%, 90%, 10%, not calculated
